Consider 5 compounds from DBAASP.

Common to all, as to assay: ≥ marks a high value that may be exact or a test limit, other limits are often not marked, values filed in µg/mL are converted to µM
The subject of assay [1] is Mycobacterium tuberculosis H37Rv.
Assay [2] has as its system Escherichia coli K88.
Assay [3] deals with Escherichia coli O157:H7 CICC 21530.
Assay [4] concerns Lacticaseibacillus rhamnosus 1.0911.
Assay [5] relates to Lacticaseibacillus rhamnosus 1.0936.
For assay [6], the system named is Lacticaseibacillus rhamnosus 1.9021.
Assay [7] has as its system Lacticaseibacillus rhamnosus 8014.
The subject of assay [8] is Pseudomonas aeruginosa ATCC 27853.
In assay [9] the test system is Pseudomonas aeruginosa PAO1.
For assay [10], the system named is Salmonella enterica subsp. enterica serovar Choleraesuis CVCC 503.
Assay [11] relates to Salmonella enterica subsp. enterica serovar Pullorum C79-13.
For assay [12], the system named is Salmonella enterica subsp. enterica serovar Typhimurium ATCC 14028.
The subject of assay [13] is Staphylococcus aureus ATCC 29213.
In assay [14] the test system is Staphylococcus aureus ATCC 43300.
For assay [15], the system named is Staphylococcus epidermidis ATCC 12228.
In assay [16] the test system is Streptococcus agalactiae BNCC 185941.
The subject of assay [17] is Bacillus cereus AS1.126.
The test system of assay [18] is Enterobacter cloacae CGMCC 1.58.
The test system of assay [19] is Enterococcus faecalis CGMCC 1.595.
Assay [20] deals with Enterococcus faecium CGMCC 1.2334.
In assay [21] the test system is Escherichia coli AS1.349.
The test system of assay [22] is Klebsiella aerogenes CGMCC 1.876.
Assay [23] has as its system Klebsiella pneumoniae subsp. pneumoniae CGMCC 1.176.
In assay [24] the test system is Lactococcus lactis AS1.1690.
Assay [25] deals with Pseudomonas aeruginosa CGMCC 1.860.
Assay [26] has as its system Staphylococcus aureus AS1.72.
In assay [27] the test system is Escherichia coli INV-a.
The subject of assay [28] is Lactococcus lactis MG1363.
Assay [29] deals with Bacillus cereus ATCC 11778.
Assay [30] has as its system Bacillus thuringiensis ATCC 10792.
Assay [31] deals with Candida albicans ATCC 90028.
Assay [32] deals with Cryptococcus gattii ATCC 56990.
Assay [33] relates to Cryptococcus neoformans ATCC 90112.
Assay [34] concerns Enterococcus faecium CCT 5079.
The subject of assay [35] is Enterococcus hirae ATCC 10541.
Assay [36] has as its system Escherichia coli ATCC 11775.
The subject of assay [37] is Escherichia coli ATCC 25922.
The subject of assay [38] is Escherichia coli CCT 1457.
The subject of assay [39] is Micrococcus luteus ATCC 4698.
Assay [40] relates to Paracoccidioides brasiliensis.
The test system of assay [41] is Paracoccidioides lutzii ATCC MYA-826.
In assay [42] the test system is Pseudomonas aeruginosa ATCC 13388.
In assay [43] the test system is Pseudomonas aeruginosa ATCC 15422.
Assay [44] concerns Salmonella enterica subsp. enterica serovar Choleraesuis ATCC 10708.
Assay [45] has as its system Staphylococcus aureus ATCC 25923.
Assay [46] concerns Staphylococcus aureus CCT 2580.
Assay [47] has as its system Staphylococcus aureus CCT 6538.
The test system of assay [48] is Streptococcus mutans AU159.
In assay [49] the test system is Streptococcus pneumoniae ATCC 11733.

Each structure is given as a SMILES string. ≈ marks a conversion by molar mass, not a printed value.

One may read the MIC as the smallest concentration in the dilution series that meets the test's criterion for growth inhibition. In [1], `CC(C)C[C@H](NC(=O)[C@H](C)N)C(=O)N[C@@H](CCCCN)C(=O)N[C@@H](CCCCN)C(=O)N[C@@H](CC(C)C)C(=O)N[C@H](C(=O)N[C@@H](CCCN=C(N)N)C(=O)N[C@@H](Cc1c[nH]c2ccccc12)C(=O)N[C@@H](Cc1c[nH]c2ccccc12)C(=O)N[C@@H](CCCCN)C(=O)N[C@@H](CCCN=C(N)N)C(=O)N[C@@H](Cc1c[nH]c2ccccc12)C(=O)N[C@@H](Cc1c[nH]c2ccccc12)C(=O)N[C@@H](CO)C(=O)N[C@@H](CCCCN)C(=O)O)C(C)C` [ALKKLVRWWKRWWSK] had an MIC of 18.1 µM (≈ 37.5 µg/mL).
For `CC(C)C[C@H](NC(=O)[C@H](CCCCN)NC(=O)[C@H](CCCCN)NC(=O)CN)C(=O)N[C@@H](CC(C)C)C(=O)N[C@@H](Cc1c[nH]c2ccccc12)C(=O)N[C@@H](CC(C)C)C(=O)N[C@@H](CC(C)C)C(=O)N[C@@H](CCCCN)C(=O)N[C@@H](CCCCN)C(=O)NCC(N)=O` [GKKLLWLLKKG], the MIC in assay [2] was 16 µM (≈ 20.5 µg/mL); in [3], not below 64 µM; in assay [4], not below 128 µM; in assay [5] it was not below 128 µM; in assay [6], not below 128 µM; in [7], not below 128 µM. Besides, the minimal inhibitory concentration (MIC) in assay [8] is more than 128 µM; in assay [9] it was 64 µM (≈ 82.1 µg/mL); in assay [10], not below 64 µM; in [11], 16 µM (≈ 20.5 µg/mL); in [12], more than 128 µM; in assay [13] it was more than 128 µM. In addition, the MIC in assay [14] is more than 128 µM; in [15], more than 128 µM; in assay [16] it was not below 128 µM.
With `NC(N)=NCCC[C@H](NC(=O)[C@H](Cc1cnc[nH]1)NC(=O)[C@H](Cc1c[nH]c2ccccc12)NC(=O)[C@H](Cc1ccccc1)NC(=O)[C@H](CCCN=C(N)N)NC(=O)[C@H](CCCN=C(N)N)NC(=O)[C@H](Cc1c[nH]c2ccccc12)NC(=O)[C@@H](N)Cc1cnc[nH]1)C(=O)O` [HWRRFWHR], the MIC was 3.13 µM (≈ 4.01 µg/mL) in [17]; not below 100 µM in [18]; 12.5 µM (≈ 16 µg/mL) in [19]; 12.5 µM (≈ 16 µg/mL) in assay [20]; 12.5 µM (≈ 16 µg/mL) in [21]; not below 100 µM in [22]. The MIC is not below 100 µM in assay [23], 25 µM (≈ 32 µg/mL) in assay [24], 12.5 µM (≈ 16 µg/mL) in assay [25] and 12.5 µM (≈ 16 µg/mL) in assay [26].
For `CC[C@H](C)[C@H](N)C(=O)N[C@@H](CC(N)=O)C(=O)N[C@@H](Cc1c[nH]c2ccccc12)C(=O)N[C@@H](CCCCN)C(=O)NCC(=O)N[C@H](C(=O)N[C@@H](C)C(=O)N[C@@H](C)C(=O)N[C@@H](CCSC)C(=O)N[C@@H](C)C(=O)N[C@@H](CCCCN)C(=O)N[C@@H](CCCCN)C(=O)N[C@@H](CC(C)C)C(=O)N[C@@H](C)C(N)=O)[C@@H](C)CC` [INWKGIAAMAKKLA], the results for the MIC in assay [27] and in [28] were not below 33 µM and 21 µM (≈ 31.8 µg/mL), respectively.
Take `CC[C@H](C)[C@H](N)C(=O)N[C@@H](CC(N)=O)C(=O)N[C@@H](Cc1c[nH]c2ccccc12)C(=O)N[C@@H](CC(C)C)C(=O)N[C@@H](CCCCN)C(=O)N[C@H](C(=O)N[C@@H](C)C(=O)N[C@@H](CCCCN)C(=O)N[C@@H](CCCCN)C(=O)N[C@H](C(=O)N[C@@H](CCCCN)C(=O)NCC(=O)N[C@@H](CCSC)C(=O)N[C@@H](CC(C)C)C(N)=O)C(C)C)[C@@H](C)CC` [INWLKIAKKVKGML]: the MIC in assay [29] came to 18.9 µM (≈ 31 µg/mL); in [30], 18.9 µM (≈ 31 µg/mL); in assay [31] it was 9.51 µM (≈ 15.6 µg/mL); in assay [32], 9.5 µM (≈ 15.6 µg/mL); in assay [33] it was 19 µM (≈ 31.2 µg/mL); in [34] it was 0.609 µM (≈ 0.999 µg/mL). In addition, the MIC in assay [35] came out at 9.74 µM (≈ 16 µg/mL); in assay [36], 9.74 µM (≈ 16 µg/mL); in [37] it was 18.9 µM (≈ 31 µg/mL); in assay [38], 2.44 µM (≈ 4 µg/mL); in assay [39], 1.22 µM (≈ 2 µg/mL); in assay [40], 4.75 µM (≈ 7.8 µg/mL). For the same compound, the MIC in assay [41] was determined as 9.5 µM (≈ 15.6 µg/mL); in assay [42] it was 4.87 µM (≈ 8 µg/mL); in assay [43], 9.74 µM (≈ 16 µg/mL); in assay [44] it was 18.9 µM (≈ 31 µg/mL); in assay [12] it was 4.87 µM (≈ 8 µg/mL); in assay [45], 2.44 µM (≈ 4 µg/mL). In addition, the MIC in [46] stood at 2.44 µM (≈ 4 µg/mL); in assay [47], 4.87 µM (≈ 8 µg/mL); in [15], 1.22 µM (≈ 2 µg/mL); in assay [48], 4.87 µM (≈ 8 µg/mL); in assay [49], 0.609 µM (≈ 0.999 µg/mL).
